Holding throughout (assay type): cell-based
The test system of one assay is MOLM-13. Briefly: CellTiter-Glo cell growth inhibition, MOLM-13. As to conditions: Homo sapiens, MOLM-13, 96 h, 4 days, Table 4, read-out: MOLM-13 IC50. Here is the method:
(§1) Cell growth inhibitory activity of representative Compounds of the Disclosure was determined using the CellTiter-Glo® Luminescent Cell Viability Assay. Cells were seeded in 384-well white opaque cell culture plates at a density of 2,000 cells/well with serially diluted compounds and incubated at 37° C. in an atmosphere of 95% air and 5% CO2 for 4 days. Cell viability was determined using the CellTiter-Glo® Luminescent Cell Viability Assay Kit (Promega, Madison, Wis.) according to the manufacture's instruction. Briefly, a volume of CellTiter-Glo® Reagent equal to the volume of cell culture medium was added to each well, and then the plates were incubated at room temperature for 10-20 minutes. The luminescent signal was measured using a Tecan Infinite M1000 multimode microplate reader (Tecan, Morrisville, N.C.). The half maximal inhibitory concentration (IC50) was calculated using the GraphPad Prism 5 software (GraphPad Software, La Jolla, Calif.).
(§2) Cpd. Nos. 18 and 19 were tested in various leukemia cell lines using the CellTiter-Glo® Luminescent Cell Viability Assay as described in Example 35.
A general note: ATP-based viability assays read luminescence as a measure of living cells.

The subject of the next assay is RS4;11. Briefly: CellTiter-Glo cell growth inhibition, RS4;11. As to conditions: Homo sapiens, RS4-11, 96 h, 4 days, Table 4, read-out: RS-4, 11 IC50. Here is the method:
as §1, §2

For another assay, the system named is MDA-MB-231. Briefly: CellTiter-Glo cell growth inhibition, MDA-MB-231. As to conditions: Homo sapiens, MDA-MB-231, 96 h, 4 days, Table 4. The method, then:
as §1

The term pIC50 denotes the IC50 on a negative log10 scale, so that one unit is a factor of ten.

The structures appear in SMILES notation. pIC50: −log10 of the molar value.

For `Cc1nnc2n1-c1sc(C#Cc3cn(CCCC#Cc4cccc5c4CN(C4CCC(=O)NC4=O)C5=O)cn3)c(Cc3ccccc3)c1CO[C@H]2C` (stereo partly drawn) [Cpd. No. 20, 3-(4-(5-(4-(((S)-3-benzyl-6,9-dimethyl-4H,6H-thieno[2,3-e][1,2,4]triazolo[3,4-c][1,4]oxazepin-2-yl)ethynyl)-1H-imidazol-1-yl)pent-1-yn-1-yl)-1-oxoisoindolin-2-yl)piperidine-2,6-dione], the pIC50 in the assay with MOLM-13 is 8.42; with RS4;11 it was 9.15; with MDA-MB-231 it was 7.80.
`Cc1nnc2n1-c1sc(C#Cc3cnn(CCCC#Cc4cccc5c4C(=O)N(C4CCC(=O)NC4=O)C5=O)c3)c(Cc3ccccc3)c1COC2` (stereo not drawn) [Cpd. No. 49, 4-(5-(4-((3-benzyl-9-methyl-4H,6H-thieno[2,3-e][1,2,4]triazolo[3,4-c][1,4]oxazepin-2-yl)ethynyl)-1H-pyrazol-1-yl)pent-1-yn-1-yl)-2-(2,6-dioxopiperidin-3-yl)isoindoline-1,3-dione]: the pIC50 in the assay on MOLM-13 is 8.02; in the assay on RS4;11, 9.25; with MDA-MB-231, 8.26.
Turning to `Cc1nnc2n1-c1sc(C#Cc3cnn(CCCC#Cc4cccc5c4C(=O)N(C4CCC(=O)NC4=O)C5=O)c3)c(Cc3ccccc3)c1CO[C@H]2C` (stereo partly drawn) [Cpd. No. 14, 4-(5-(4-(((S)-3-benzyl-6,9-dimethyl-4H,6H-thieno[2,3-e][1,2,4]triazolo[3,4-c][1,4]oxazepin-2-yl)ethynyl)-1H-pyrazol-1-yl)pent-1-yn-1-yl)-2-(2,6-dioxopiperidin-3-yl)isoindoline-1,3-dione], the pIC50 was 8.06 in the assay with MOLM-13, 9.37 with RS4;11 and 8.03 in the assay with MDA-MB-231.
Regarding `Cc1nnc2n1-c1sc(C#Cc3cn(CCCC#Cc4cccc5c4C(=O)N(C4CCC(=O)NC4=O)C5=O)cn3)c(Cc3ccccc3)c1CO[C@H]2C` (stereo partly drawn) [compound 21, 4-(5-(4-(((S)-3-benzyl-6,9-dimethyl-4H,6H-thieno[2,3-e][1,2,4]triazolo[3,4-c][1,4]oxazepin-2-yl)ethynyl)-1H-imidazol-1-yl)pent-1-yn-1-yl)-2-(2,6-dioxopiperidin-3-yl)isoindoline-1,3-dione], the pIC50 is 7.80 in the assay with MOLM-13, 8.52 with RS4;11 and 7.22 with MDA-MB-231.
The corresponding values for `Cc1nnc2n1-c1sc(C#Cc3ccc(CCCCNc4cccc5c4CN(C4CCC(=O)NC4=O)C5=O)nc3)c(Cc3ccccc3)c1COC2` (stereo not drawn) [Cpd. No. 46, 3-(4-((4-(5-((3-benzyl-9-methyl-4H,6H-thieno[2,3-e][1,2,4]triazolo[3,4-c][1,4]oxazepin-2-yl)ethynyl)pyridin-2-yl)butyl)amino)-1-oxoisoindolin-2-yl) piperidine-2,6-dione] are 8.55, over 10.00 and 8.62.
In the same order, the values of `Cc1nnc2n1-c1sc(C#Cc3cnc(CCCC#Cc4cccc5c4CN(C4CCC(=O)NC4=O)C5=O)n3C)c(Cc3ccccc3)c1CO[C@H]2C` (stereo partly drawn) [Cpd. No. 15, 3-(4-(5-(5-(((S)-3-benzyl-6,9-dimethyl-4H,6H-thieno[2,3-e][1,2,4]triazolo[3,4-c][1,4]oxazepin-2-yl)ethynyl)-1-methyl-1H-imidazol-2-yl)pent-1-yn-1-yl)-1-oxoisoindolin-2-yl)piperidine-2,6-dione] are 8.12, 9.70 and 7.60.

Values taken from patent US11466028B2, “Fused 1,4-oxazepines as BET protein degraders” (THE REGENTS OF THE UNIVERSITY OF MICHIGAN, priority 2016, dated 2022).
